Laboratory results reported in US10787425B2, “Thiazolidinedione derivative and use thereof” (INDUSTRY-ACADEMIC COOPERATION FOUNDATION CHOSUN UNIVERSITY, priority 2016, dated 2020).

What follows are molecules tested on A549 cells (assay: Measurement of PGE2 concentration in A549 cell medium (ELISA)). Details: PGE2 concentration versus PBS control, 5 μM, 12 hours.
Type: cell-based, human
Method: A549 cells were subcultured in RPMI 1640 medium (containing+8% fetal bovine serum (FBS) and antibiotic-antimycotic (AA)) for one week, and then, inoculated in a 6-well plate at 2.5×10^5 cells/mL (5×10^5 cells/well) and cultured for 24 hours in a 5% CO2 incubator at a temperature of 37° C. A549 cells are adenocarcinomic human alveolar basal epithelial cells which are derived from lung tissues. When cells were grown to about 80% confluence, a 15-PGDH inhibitor in 1×PBS buffer was injected at a concentration of 5 μM. To compare the results, the same amount of 1×PBS buffer was injected into a negative control, and, the treated cells were cultured in 5% CO2 incubator. After 12 hours, the medium was collected and the collected medium was assayed to measure PGE2 concentration by using an ELISA Kit (Abcam) according to the manufacturer's instructions. The concentration may be expressed as an exact value by plotting the calibration curve by using the absorbance value after diluting the standard in the medium by concentration.

| SMILES | Increment % [%] |
| --- | --- |
| O=C(Cc1ccccc1)Oc1ccc(/C=C2\SC(=O)NC2=O)c(Cl)c1 [Compound 102, (Z)-3-chloro-4-((2,4-dioxothiazolidin-5-ylidene)methyl)phenyl 2-phenylacetate] | 99.2022 |
| O=C(CCCCC1CCCCC1)Oc1cccc(/C=C2\SC(=O)NC2=O)c1Cl [Compound 85, (Z)-2-chloro-3-((2,4-dioxothiazolidin-5-ylidene)methyl)phenyl 5-cyclohexylpentanoate] | −7.79 |
| O=C(CCC1CCCC1)Oc1ccc(/C=C2\SC(=O)NC2=O)c(Cl)c1 [Compound 95, (Z)-3-chloro-4-((2,4-dioxothiazolidin-5-ylidene)methyl)phenyl 3-cyclopentylpropanoate] | 113.4574 |
| COc1cc(/C=C2\SC(=O)NC2=O)ccc1OC(=O)CC1CCCCC1 [Compound 37, (Z)-4-((2,4-dioxothiazolidin-5-ylidene)methyl)-2-methoxyphenyl 2-cyclohexylacetate] | 88.85 |
| O=C(CCCC1CCCCC1)Oc1ccc(/C=C2\SC(=O)NC2=O)cc1 [Compound 69, (Z)-4-((2,4-dioxothiazolidin-5-ylidene)methyl)phenyl 4-cyclohexylbutanoate] | 134.45 |
| O=C1NC(=O)/C(=C/c2cccc(OC(=O)C3CCCC3)c2Cl)S1 [Compound 78, (Z)-2-chloro-3-((2,4-dioxothiazolidin-5-ylidene)methyl)phenyl cyclopentanecarboxylate] | −67.32 |
| O=C(CC1CCCC1)Oc1ccc(/C=C2\SC(=O)NC2=O)cc1Br [Compound 19, (Z)-2-bromo-4-((2,4-dioxothiazolidin-5-ylidene)methyl)phenyl 2-cyclopentylacetate] | −8.11 |
| CCOc1cc(/C=C2\SC(=O)NC2=O)ccc1OC(=O)C1CCCCC1 [Compound 51, (Z)-4-((2,4-dioxothiazolidin-5-ylidene)methyl)-2-ethoxyphenyl cyclohexanecarboxylate] | 3.34 |
| O=C(CC1CCCC1)Oc1cccc(/C=C2\SC(=O)NC2=O)c1Cl [Compound 79, (Z)-2-chloro-3-((2,4-dioxothiazolidin-5-ylidene)methyl)phenyl 2-cyclopentylacetate] | −2.34 |
| O=C1NC(=O)/C(=C/c2ccc(OC(=O)C3CCCCC3)cc2)S1 [Compound 66, (Z)-4-((2,4-dioxothiazolidin-5-ylidene)methyl)phenyl cyclohexanecarboxylate] | 2.49 |
| O=C(CCC1CCCC1)Oc1ccc(/C=C2\SC(=O)NC2=O)cc1 [Compound 65, (Z)-4-((2,4-dioxothiazolidin-5-ylidene)methyl)phenyl 3-cyclopentylpropanoate] | 78.97 |
| O=C(CCC1CCCCC1)Oc1cccc(/C=C2\SC(=O)NC2=O)c1Cl [Compound 83, (Z)-2-chloro-3-((2,4-dioxothiazolidin-5-ylidene)methyl)phenyl 3-cyclohexylpropanoate] | 201.32 |
| O=C(CCC1CCCCC1)Oc1ccc(/C=C2\SC(=O)NC2=O)cc1Br [Compound 23, (Z)-2-bromo-4-((2,4-dioxothiazolidin-5-ylidene)methyl)phenyl 3-cyclohexylpropanoate] | 311.02 |
| COc1cc(/C=C2\SC(=O)NC2=O)ccc1OC(=O)CCC1CCCCC1 [Compound 38, (Z)-4-((2,4-dioxothiazolidin-5-ylidene)methyl)-2-methoxyphenyl 3-cyclohexylpropanoate] | 323.99 |
| O=C1NC(=O)/C(=C/c2ccc(OC(=O)c3ccccc3)cc2)S1 [Compound 71, (Z)-4-((2,4-dioxothiazolidin-5-ylidene)methyl)phenyl benzoate] | −58.38 |
| O=C(CCCC1CCCCC1)Oc1ccc(/C=C2\SC(=O)NC2=O)c(Cl)c1 [Compound 99, (Z)-3-chloro-4-((2,4-dioxothiazolidin-5-ylidene)methyl)phenyl 4-cyclohexylbutanoate] | 66.7717 |
| CCOc1cc(/C=C2\SC(=O)NC2=O)ccc1OC(=O)CCC1CCCCC1 [Compound 53, (Z)-4-((2,4-dioxothiazolidin-5-ylidene)methyl)-2-ethoxyphenyl 3-cyclohexylpropanoate] | 189.34 |
| O=C(CCC1CCCCC1)Oc1ccc(/C=C2\SC(=O)NC2=O)c(Cl)c1 [Compound 98, (Z)-3-chloro-4-((2,4-dioxothiazolidin-5-ylidene)methyl)phenyl 3-cyclohexylpropanoate] | 138.7487 |
| O=C(CCC1CCCCC1)Oc1ccc(/C=C2\SC(=O)NC2=O)cc1Cl [Compound 8, (Z)-2-chloro-4-((2,4-dioxothiazolidin-5-ylidene)methyl)phenyl 3-cyclohexylpropanoate] | 221.32 |
| O=C1NC(=O)/C(=C/c2ccc(OC(=O)C3CCC3)cc2)S1 [Compound 62, (Z)-4-((2,4-dioxothiazolidin-5-ylidene)methyl)phenyl cyclobutanecartboxylate] | 12.13 |
| O=C(CCC1CCCCC1)Oc1ccc(/C=C2\SC(=O)NC2=O)cc1 [Compound 68, (Z)-4-((2,4-dioxothiazolidin-5-ylidene)methyl)phenyl 3-cyclohexylpropanoate] | 97.45 |
| O=C1NC(=O)/C(=C/c2cccc(OC(=O)C3CCCCC3)c2Cl)S1 [Compound 81, (Z)-2-chloro-3-((2,4-dioxothiazolidin-5-ylidene)methyl)phenyl cyclohexanecarboxylate] | 10.32 |

Same assay, conditions: inhibitor 5 μM, medium collected after 12 hours, ELISA

| SMILES | PGE2 concentration [pg/mL] |
| --- | --- |
| O=C(Cc1ccccc1)Oc1ccc(/C=C2\SC(=O)NC2=O)c(Cl)c1 [Compound 102, (Z)-3-chloro-4-((2,4-dioxothiazolidin-5-ylidene)methyl)phenyl 2-phenylacetate] | 222.4242 |
| O=C(CCCCC1CCCCC1)Oc1cccc(/C=C2\SC(=O)NC2=O)c1Cl [Compound 85, (Z)-2-chloro-3-((2,4-dioxothiazolidin-5-ylidene)methyl)phenyl 5-cyclohexylpentanoate] | 194.0212 |
| O=C(CCC1CCCC1)Oc1ccc(/C=C2\SC(=O)NC2=O)c(Cl)c1 [Compound 95, (Z)-3-chloro-4-((2,4-dioxothiazolidin-5-ylidene)methyl)phenyl 3-cyclopentylpropanoate] | 238.3412 |
| COc1cc(/C=C2\SC(=O)NC2=O)ccc1OC(=O)CC1CCCCC1 [Compound 37, (Z)-4-((2,4-dioxothiazolidin-5-ylidene)methyl)-2-methoxyphenyl 2-cyclohexylacetate] | 382.9119 |
| O=C(CCCC1CCCCC1)Oc1ccc(/C=C2\SC(=O)NC2=O)cc1 [Compound 69, (Z)-4-((2,4-dioxothiazolidin-5-ylidene)methyl)phenyl 4-cyclohexylbutanoate] | 302.8477 |
| O=C1NC(=O)/C(=C/c2cccc(OC(=O)C3CCCC3)c2Cl)S1 [Compound 78, (Z)-2-chloro-3-((2,4-dioxothiazolidin-5-ylidene)methyl)phenyl cyclopentanecarboxylate] | 39.11 |
| O=C(CC1CCCC1)Oc1ccc(/C=C2\SC(=O)NC2=O)cc1Br [Compound 19, (Z)-2-bromo-4-((2,4-dioxothiazolidin-5-ylidene)methyl)phenyl 2-cyclopentylacetate] | 232.5151 |
| CCOc1cc(/C=C2\SC(=O)NC2=O)ccc1OC(=O)C1CCCCC1 [Compound 51, (Z)-4-((2,4-dioxothiazolidin-5-ylidene)methyl)-2-ethoxyphenyl cyclohexanecarboxylate] | 283.1296 |
| O=C(CC1CCCC1)Oc1cccc(/C=C2\SC(=O)NC2=O)c1Cl [Compound 79, (Z)-2-chloro-3-((2,4-dioxothiazolidin-5-ylidene)methyl)phenyl 2-cyclopentylacetate] | 116.875 |
| O=C1NC(=O)/C(=C/c2ccc(OC(=O)C3CCCCC3)cc2)S1 [Compound 66, (Z)-4-((2,4-dioxothiazolidin-5-ylidene)methyl)phenyl cyclohexanecarboxylate] | 132.3901 |
| O=C(CCC1CCCC1)Oc1ccc(/C=C2\SC(=O)NC2=O)cc1 [Compound 65, (Z)-4-((2,4-dioxothiazolidin-5-ylidene)methyl)phenyl 3-cyclopentylpropanoate] | 284.8007 |
| O=C(CCC1CCCCC1)Oc1cccc(/C=C2\SC(=O)NC2=O)c1Cl [Compound 83, (Z)-2-chloro-3-((2,4-dioxothiazolidin-5-ylidene)methyl)phenyl 3-cyclohexylpropanoate] | 634.0143 |
| O=C(CCC1CCCCC1)Oc1ccc(/C=C2\SC(=O)NC2=O)cc1Br [Compound 23, (Z)-2-bromo-4-((2,4-dioxothiazolidin-5-ylidene)methyl)phenyl 3-cyclohexylpropanoate] | 1040.03 |
| COc1cc(/C=C2\SC(=O)NC2=O)ccc1OC(=O)CCC1CCCCC1 [Compound 38, (Z)-4-((2,4-dioxothiazolidin-5-ylidene)methyl)-2-methoxyphenyl 3-cyclohexylpropanoate] | 859.6813 |
| O=C1NC(=O)/C(=C/c2ccc(OC(=O)c3ccccc3)cc2)S1 [Compound 71, (Z)-4-((2,4-dioxothiazolidin-5-ylidene)methyl)phenyl benzoate] | 53.76 |
| O=C(CCCC1CCCCC1)Oc1ccc(/C=C2\SC(=O)NC2=O)c(Cl)c1 [Compound 99, (Z)-3-chloro-4-((2,4-dioxothiazolidin-5-ylidene)methyl)phenyl 4-cyclohexylbutanoate] | 186.2131 |
| CCOc1cc(/C=C2\SC(=O)NC2=O)ccc1OC(=O)CCC1CCCCC1 [Compound 53, (Z)-4-((2,4-dioxothiazolidin-5-ylidene)methyl)-2-ethoxyphenyl 3-cyclohexylpropanoate] | 792.73 |
| O=C(CCC1CCCCC1)Oc1ccc(/C=C2\SC(=O)NC2=O)c(Cl)c1 [Compound 98, (Z)-3-chloro-4-((2,4-dioxothiazolidin-5-ylidene)methyl)phenyl 3-cyclohexylpropanoate] | 266.5808 |
| O=C(CCC1CCCCC1)Oc1ccc(/C=C2\SC(=O)NC2=O)cc1Cl [Compound 8, (Z)-2-chloro-4-((2,4-dioxothiazolidin-5-ylidene)methyl)phenyl 3-cyclohexylpropanoate] | 879.6746 |
| O=C1NC(=O)/C(=C/c2ccc(OC(=O)C3CCC3)cc2)S1 [Compound 62, (Z)-4-((2,4-dioxothiazolidin-5-ylidene)methyl)phenyl cyclobutanecartboxylate] | 178.4361 |
| O=C(CCC1CCCCC1)Oc1ccc(/C=C2\SC(=O)NC2=O)cc1 [Compound 68, (Z)-4-((2,4-dioxothiazolidin-5-ylidene)methyl)phenyl 3-cyclohexylpropanoate] | 255.0535 |
| O=C1NC(=O)/C(=C/c2cccc(OC(=O)C3CCCCC3)c2Cl)S1 [Compound 81, (Z)-2-chloro-3-((2,4-dioxothiazolidin-5-ylidene)methyl)phenyl cyclohexanecarboxylate] | 232.1268 |

What follows are molecules tested against 15-PGDH (Homo sapiens (Human), UniProt P15428) (assay: 15-PGDH inhibitory activity (NADH at 340 nm)). Details: concentration inhibiting 50% of 15-PGDH activity; purified 15-PGDH, 21 μM PGE2, 0.25 mM NAD+.
Chain of 15-PGDH (P15428 whole entry): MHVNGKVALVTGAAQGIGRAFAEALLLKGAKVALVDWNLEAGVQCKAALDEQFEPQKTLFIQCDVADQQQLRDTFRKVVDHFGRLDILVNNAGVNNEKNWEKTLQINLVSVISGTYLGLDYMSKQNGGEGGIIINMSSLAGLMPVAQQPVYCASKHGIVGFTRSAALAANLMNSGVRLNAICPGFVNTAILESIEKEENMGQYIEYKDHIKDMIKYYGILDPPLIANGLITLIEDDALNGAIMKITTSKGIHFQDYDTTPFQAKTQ
Type: biochemical
Method: The 15-PGDH cDNA plasmid containing the BamHI of the pGEX-2T expression vector and EcoRI restriction enzyme sites was transfected into E. coli BL-21 LysS by using conventional methods used in the art. Then, the transfected cells were cultured in an LB medium (500 ml) containing 50 μg/ml of ampicillin at a temperature of 37° C. and at a rate of 220 rpm until the OD600 reached 0.6. Then, isopropyl beta-D-thiogalactoxide (1 mM) was added and the cells were further cultured at the temperature of 25° C. for 12 hours. The cells were then centrifuged at the gravity of 4,000 g for 30 minutes at a temperature of 4° C. to collect a cell pellet. The cell pellet was dissolved in 20 ml of cell lysis buffer (containing 1×PBS buffer (pH 7.4): 1 mM EDTA and 0.1 mM DTT) and sonicated at a temperature of 4° C. for 14×10 s. The digested cells were centrifuged at the gravity of 4,000 g for 20 minutes at a temperature of 4° C. The supernatant was then slowly loaded onto a glutathione-sepharose 4B column equilibrated at a temperature of 4° C. with cell lysis buffer [containing 1×PBS buffer (pH 7.4), 1 mM EDTA, and 0.1 mM DTT]. Washing was performed thereon by using a dissolution buffer until the OD280 reached 0.005 or less. Then, 15-PGDH was eluted from the glutathione-sepharose 4B column at room temperature for 5 minutes by using an elution buffer [containing 50 mM Tris-HCl (pH 8.0), 10 mM reduced glutathione, 1 mM EDTA, and 0.1 mM DTT). The concentration of the purified enzyme was measured, and the purification level thereof was confirmed by SDS-PAGE.
That is, the cells were treated with a solution including 50 mM Tris-HCl (pH 7.5), 0.1 mM DTT, 0.25 mM (NAD+), 10 μg of purified 15-PGDH enzyme, 21 μM PGE2. and various concentrations (0.0001 μM to 64 μM) of the derivative compound according to the present disclosure. In this case, the total volume of the solution was 2 ml. Then, the absorbance of the reaction mixture was recorded at the wavelength of 340 nm. To measure the activity of the derivative compounds according to the present disclosure, which is an inhibitor of 15-PGDH, the average value of NADH absorbance at 340 nm at various concentrations was obtained from a standard curve.

| SMILES | IC50 [nM] |
| --- | --- |
| O=C(Cc1ccccc1)Oc1ccc(/C=C2\SC(=O)NC2=O)c(Cl)c1 [Compound 102, (Z)-3-chloro-4-((2,4-dioxothiazolidin-5-ylidene)methyl)phenyl 2-phenylacetate] | 75.3 |
| O=C(CCCCC1CCCCC1)Oc1cccc(/C=C2\SC(=O)NC2=O)c1Cl [Compound 85, (Z)-2-chloro-3-((2,4-dioxothiazolidin-5-ylidene)methyl)phenyl 5-cyclohexylpentanoate] | 25.6 |
| COc1cc(/C=C2\SC(=O)NC2=O)ccc1OC(=O)CC1CCCCC1 [Compound 37, (Z)-4-((2,4-dioxothiazolidin-5-ylidene)methyl)-2-methoxyphenyl 2-cyclohexylacetate] | 27.8 |
| O=C(CCCC1CCCCC1)Oc1ccc(/C=C2\SC(=O)NC2=O)cc1 [Compound 69, (Z)-4-((2,4-dioxothiazolidin-5-ylidene)methyl)phenyl 4-cyclohexylbutanoate] | 26.1 |
| O=C1NC(=O)/C(=C/c2cccc(OC(=O)C3CCCC3)c2Cl)S1 [Compound 78, (Z)-2-chloro-3-((2,4-dioxothiazolidin-5-ylidene)methyl)phenyl cyclopentanecarboxylate] | 56.2 |
| O=C(CC1CCCC1)Oc1ccc(/C=C2\SC(=O)NC2=O)cc1Br [Compound 19, (Z)-2-bromo-4-((2,4-dioxothiazolidin-5-ylidene)methyl)phenyl 2-cyclopentylacetate] | 19.8 |
| CCOc1cc(/C=C2\SC(=O)NC2=O)ccc1OC(=O)C1CCCCC1 [Compound 51, (Z)-4-((2,4-dioxothiazolidin-5-ylidene)methyl)-2-ethoxyphenyl cyclohexanecarboxylate] | 549 |
| O=C(CC1CCCC1)Oc1cccc(/C=C2\SC(=O)NC2=O)c1Cl [Compound 79, (Z)-2-chloro-3-((2,4-dioxothiazolidin-5-ylidene)methyl)phenyl 2-cyclopentylacetate] | 42.8 |
| O=C1NC(=O)/C(=C/c2ccc(OC(=O)C3CCCCC3)cc2)S1 [Compound 66, (Z)-4-((2,4-dioxothiazolidin-5-ylidene)methyl)phenyl cyclohexanecarboxylate] | 88.8 |
| O=C(CCC1CCCC1)Oc1ccc(/C=C2\SC(=O)NC2=O)cc1 [Compound 65, (Z)-4-((2,4-dioxothiazolidin-5-ylidene)methyl)phenyl 3-cyclopentylpropanoate] | 23.2 |
